The values below come from ChEMBL document CHEMBL1938312, “Design and combinatorial synthesis of a novel kinase-focused library using click chemistry-based fragment assembly” (Bioorg Med Chem Lett, 2012).

The source made the active and inactive calls. No cut-off for these calls is given here.

For orientation: IC50 means the concentration needed to halve the response being measured. Low readings indicate inhibition by little substance, high ones a need for much substance.

The target in test [1] is T1, Tyrosine-protein kinase JAK3 (Homo sapiens) (UniProt P52333).
T1 sequence (whole entry): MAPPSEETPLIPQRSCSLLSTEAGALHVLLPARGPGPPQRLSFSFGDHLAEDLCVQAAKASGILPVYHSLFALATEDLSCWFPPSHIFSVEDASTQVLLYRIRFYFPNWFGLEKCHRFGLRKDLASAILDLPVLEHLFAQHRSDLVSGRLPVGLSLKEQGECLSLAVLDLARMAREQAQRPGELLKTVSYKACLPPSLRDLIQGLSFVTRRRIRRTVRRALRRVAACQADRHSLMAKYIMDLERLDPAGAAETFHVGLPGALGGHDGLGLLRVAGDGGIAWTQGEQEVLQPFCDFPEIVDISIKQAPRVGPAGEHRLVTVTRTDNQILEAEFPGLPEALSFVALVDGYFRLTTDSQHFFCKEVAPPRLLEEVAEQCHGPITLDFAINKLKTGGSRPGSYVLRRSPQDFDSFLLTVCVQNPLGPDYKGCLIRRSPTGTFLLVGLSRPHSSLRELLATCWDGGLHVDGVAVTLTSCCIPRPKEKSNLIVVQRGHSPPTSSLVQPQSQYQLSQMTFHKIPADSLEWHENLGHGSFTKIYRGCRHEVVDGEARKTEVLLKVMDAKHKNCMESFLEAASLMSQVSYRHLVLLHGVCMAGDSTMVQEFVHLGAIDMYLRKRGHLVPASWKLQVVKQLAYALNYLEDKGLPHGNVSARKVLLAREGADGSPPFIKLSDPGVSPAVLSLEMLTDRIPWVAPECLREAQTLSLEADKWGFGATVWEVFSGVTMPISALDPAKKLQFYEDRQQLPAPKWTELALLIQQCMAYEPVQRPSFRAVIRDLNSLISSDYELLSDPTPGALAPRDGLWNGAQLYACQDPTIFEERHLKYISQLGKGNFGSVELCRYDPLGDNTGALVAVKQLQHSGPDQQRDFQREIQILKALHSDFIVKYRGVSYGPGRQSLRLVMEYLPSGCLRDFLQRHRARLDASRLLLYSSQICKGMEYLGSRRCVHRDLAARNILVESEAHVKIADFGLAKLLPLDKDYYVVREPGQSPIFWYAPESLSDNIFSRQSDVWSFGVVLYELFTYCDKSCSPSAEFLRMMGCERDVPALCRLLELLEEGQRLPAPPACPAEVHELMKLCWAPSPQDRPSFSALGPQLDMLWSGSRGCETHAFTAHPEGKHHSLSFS
Put plainly: Inhibition of JAK3 at 10 uM by colorimetric analysis.

In test [2] the target is Glycogen synthase kinase-3 beta (Homo sapiens, UniProt P49841). The experiment in a line: Inhibition of GSK3-beta by colorimetric analysis.
Chain of Glycogen synthase kinase-3 beta (P49841 whole entry): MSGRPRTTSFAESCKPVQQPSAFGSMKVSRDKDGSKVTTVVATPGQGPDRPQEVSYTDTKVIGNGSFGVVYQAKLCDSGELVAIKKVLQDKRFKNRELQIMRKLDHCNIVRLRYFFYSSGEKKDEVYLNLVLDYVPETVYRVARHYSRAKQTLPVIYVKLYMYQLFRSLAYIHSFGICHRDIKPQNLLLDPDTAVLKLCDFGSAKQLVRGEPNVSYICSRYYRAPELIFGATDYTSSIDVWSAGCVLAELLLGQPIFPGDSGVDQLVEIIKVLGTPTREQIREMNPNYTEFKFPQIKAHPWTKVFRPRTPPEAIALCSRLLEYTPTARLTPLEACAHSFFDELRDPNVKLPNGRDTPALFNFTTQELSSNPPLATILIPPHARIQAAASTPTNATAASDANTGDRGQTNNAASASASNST

As for `Clc1ccc(-n2cc(-c3ccncc3)nn2)cc1`, the inhibition entry in test [1] is “inactive”. In test [2], this compound came in with an IC50 of 1.1 µM. As for `Clc1ccc(-n2nncc2-c2ccncc2)cc1`, the inhibition entry in test [1] was “inactive”.

With `Clc1cccc(-n2nncc2-c2ccncc2)c1`, the inhibition result in test [1] was “inactive”. Take `Clc1cccc(-n2cc(-c3ccncc3)nn2)c1`: the inhibition result in test [1] is “inactive”. Also, 1.8 µM corresponded to half-maximal inhibition in test [2] (IC50).
